Key:
heart during ischemia = conditions: cited from earlier work
liver mitochondria = conditions: cited from earlier work
[1] = test system: mouse middle cerebral artery occlusion (MCAO)/reperfusion; experiment: Middle cerebral artery occlusion (MCAO)/reperfusion, promethazine study; type: in vivo
Protocol: Middle cerebral artery occlusion/reperfusion studies were conducted as previously described. […] All animal experiments were conducted in accordance with National Institutes of Health and institutional guidelines. Male C57/B6 (Charles River Laboratories) mice weighing 18-29 g were housed in standard temperature (22±1° C.) and light-controlled (light on 07:00-21:00) environment with ad libitum access to food and water. Weight of animals undergoing stroke were restricted to less than 22 g. Animals undergoing stroke were randomized to two groups: untreated OP injection with 0.9% saline) and treated (IP injection with promethazine solution). Weight of animals undergoing sham operations was liberalized to 18-29 g. Surgery and Occlusion: Immediately before surgery, each mouse was anesthetized with 2% isoflurane (70% N2O/30% O2). During surgery, isoflurane was lowered to 1%. A midline incision was made in the neck and the right common carotid artery was dissected. The right MCA was occluded with a 7-0 nylon filament after permanent ligation of the external carotid artery and temporary ligation of the common carotid artery. […] Right MCA occlusion was defined as greater than or equal to a 90% drop of peak velocity measured by the laser Doppler flowmetry drop. […] The occluding filament was removed after 120 minutes. Sham operations consisted of the same duration and concentration of anesthesia, midline incision, doppler probe insertion over right temporal bone, and dissection of common carotid artery but no manipulation of the common carotid artery or external carotid artery. The surgeon was bided to treatment group. All mice were sacrificed at 24 hrs post perfusion. Experiments were in accordance with protocols approved by the Harvard Medical School Animal Care Committee. Drug Treatment: Both treated and control groups received two IP injections: the first one delivered 1 hr prior to ischemia and the second delivered 12 hrs later. Each i.p. dose was 10 mg/kg (in 0.5 ml) of promethazine dissolved in 0.9% NaCl or an equal volume of buffer alone. […] Determination of Infarct Volume: After 24 hrs of reperfusion, the mice were sacrificed. The brains were quickly removed and chilled for 2 minutes. The cerebellum was removed, Coronal sections (2 mm thick; n=6) were cut in a craniotome. […] After staining, each slice was scanned by an HP scanjet 4200 C, The unstained areas in each hemisphere were quantified and the ischemic area per slice=left (normal side)-right (ischemic side). […] The infarct volume was calculated by summing up the infracted areas in the 6 slices and calculating the volume for a cylinder (area×height). […] The examiner was blinded to treatment group.

[2] = test system: MPTP-induced dopamine depletion and dopaminergic neuron loss; experiment: MPTP experimental animal model for Parkinson's Disease; type: in vivo
Source text: 1-Methyl-4-phenyl-1,2,3,6-tetrahydropyridine (MPTP) has been employed as an experimental animal model for Parkinson's Disease. As evidenced by FIG. 9, promethazine appeared to have no effect on striatal dopamine levels at base line.

[3] = test system: primary cerebrocortical neurons; experiment: Oxygen-glucose deprivation (OGD) of cultured primary cerebrocortical neurons; type: cell-based, mouse; conditions: for OGD-mediated neuronal death (LDH release): promethazine 0.1 μM (p=0.05) and 0.5 μM (p<0.001)
Protocol: Heterocyclic-mediated protection was next examined in two models of stroke: (i) oxygen-glucose deprivation (OGD) of cultured primary cerebrocortical neurons, and; (ii) in the mouse, middle cerebral artery occlusion (MCAO)/reperfusion.
Neurotoxicity studies were conducted as previously described. […] Cerebral cortex of mouse embryos at day 15 (E15) were freed from meninges and separated from olfactory bulb and hippocampus.
OGD of primary cerebrocortical neurons is a widely used cell culture model of stroke-related pathology. […] Caspase-3 activation plays a key role in hypoxia/ischemia-mediated injury. To gam insight into the mechanism of promethazine-mediated neuroprotection, it was evaluated whether this compound could inhibit OGD-mediated caspase-3 activation.

[4] = test system: 3-nitropropionic acid induced striatal lesions in Lewis rats; experiment: 3-nitropropionic acid striatal lesion model (Huntington's Disease); type: in vivo, rat
Protocol: Male Lewis 344 rats were administered 3-nitroproprionic acid by subcutaneous Alzet pumps. 3-Nitropropionic acid is a mitochondrial toxin which causes selective degeneration in the basal ganglia, mice, rats and primates. The lesions that it produces highly mimic the neuropathologic features associated with Huntington's Disease. The male Lewis rats weighed from about 340 to abut 370 grams and were obtained from Charles River Laboratories. At twelve weeks of age, the subcutaneous pumps were implanted. The concentration for each individual rat was calculated so that the animals received a dose of 38 mg/kg/d. Control animals were implanted with empty osmotic pumps. The 3-nitropropionic acid was administered for one week. Animals were treated with either phosphate buffered saline (PBS) promethazine in PBS at doses of 5 to 40 mg/kg/d. One week after the administration of the compound the rats were deeply anesthetized and transcardially perfused with 4% paraformaldehyde in PBS. Subsequently, 50 μm sections were obtained and stained for nissel substance. The lesion volumes were then calculated using stereologic procedures.

humans = conditions: human, in vivo; cited from earlier work
phospholipase A2 = type: biochemical

CCN(CC)CCCC(C)Nc1c2ccc(Cl)cc2nc2ccc(OC)cc12 (stereo not shown) [Quinacrine]
protection in the heart during ischemia (heart during ischemia): protective agent

NCCc1c[nH]cn1 [Histamine]
swelling of liver mitochondria (liver mitochondria): cause swelling

CC(CN1c2ccccc2Sc2ccccc21)N(C)C (stereo not shown) [Promethazine]
reduction in lesion size compared with saline-treated mice ([1]; 10 mg/kg i.p. 1 hr prior to ischemia and 12 hrs later, 24 hrs reperfusion, n=13, p<0.005): 53%
reduction of maximal infarct size ([1]; 10 mg/kg i.p. twice): 65%
reduction of variability of the injury ([1]; 10 mg/kg i.p. twice): 65%
neurologic score ([1]; 30 minute post-ischemia evaluation): not different
neurologic impairment score ([1]; 24 hours following MCAO, p<0.05): significantly improved
protection from MCA occlusion/reperfusion ([1]; total stroke volume P<0.005): protects
MPTP-induced reduction in striatal dopamine levels ([2]; 20 mg/kg): significantly attenuated
depletion of striatal dopamine levels, dose response ([2]; 2.5, 5, and 40 mg/kg examined, optimal effects at 10 and 40 mg/kg): dose-dependent neuroprotection
loss of dopaminergic neurons in the substantia nigra pars compacta ([2]; 50% cell loss following MPTP): significantly attenuated
striatal dopamine levels at base line ([2]; without MPTP): no effect
OGD-mediated caspase-3 activation [3]: reduced
OGD-mediated neuronal death (LDH release) [3]: inhibited
OGD-mediated neuronal death (LDH release) ([3]; listed as promethazine): protection
striatal lesion volume ([4]; 3-nitropropionic acid 38 mg/kg/d for one week, promethazine 5 to 40 mg/kg/d, untreated ~14 mm^3): ~4 mm^3
3-nitropropionic induced lesions ([4]; increasing dosages): blocked
tolerability in humans (humans): well-tolerated drug with few adverse side effects
PLA2 inhibition (phospholipase A2): does not appear to be a strong

Source: patent publication US20080119517A1, “COMPOSITIONS AND METHODS FOR PROTECTING AGAINST MITOCHONDRIA COMPONENT-MEDIATED PATHOLOGY” (Cornell Research Foundation, Inc., priority 2003, published 2008)
